Assay results as given in ChEMBL document CHEMBL5360653, “Marine Alkaloid Lepadins E and H Induce Ferroptosis for Cancer Chemotherapy” (J Med Chem, 2023).
pIC50: −log10 of the molar value. The source made the active and inactive calls. The rule behind the calls is not given here.

Tests used:
[1] = Toxicity in immunocompetent C57BL/6J mouse allografted with B16-F10 cells assessed as tissue damage in liver administered at 30 mg/kg, ip daily for 14 days by hematoxylin and eosin staining analysis; type: organism-based; conditions: in vivo, 336 h, time 14 day
HeLa [2] = assay: Inhibition of colony formation in human HeLa cells treated upto 6 uM for 24 hrs measured by paraformaldehyde based crystal violet staining analysis; type: functional, cell-based
HeLa [3] = assay: Upregulation of p21 expression in human HeLa cells measured at 4 to 10 uM for 24 hrs by Western blotting analysis; type: functional, cell-based; conditions: dose 4-10 µM
HeLa [4] = assay: Inhibition of colony formation in human HeLa cells treated for 24 hrs measured by paraformaldehyde based crystal violet staining analysis; type: functional, cell-based; conditions: dose 5-9 µM
L02 = assay: Cytotoxicity against human L02 cells incubated for 72 hrs by MTT assay; type: functional, cell-based; conditions: L02, 72 h
HeLa [5] = assay: Cytotoxicity against human HeLa cells assessed as increase in cell viability pretreated with Ferrostatin-1 for 4 hrs followed by compound addition at 10 uM for 24 hrs; type: functional, cell-based
HeLa [6] = assay: Cytotoxicity against human HeLa cells assessed as increase in cell viability pretreated with NAC for 1 hr followed by compound addition at 2.5 to 20 uM for 24 hrs relative to control; type: functional; conditions: dose 2.5-20 µM
HeLa [7] = assay: Induction of apoptosis in human HeLa cells assessed as viable cells preincubated with PFTalpha followed by compound addition at 10 uM for 24 hrs measured by annexin V-PI staining based FITC analysis (reference value: 94.2%); type: functional; conditions: read-out: Activity
HeLa [8] = assay: Induction of ROS generation in human HeLa cells assessed as increase in ROS level; type: functional, cell-based; conditions: dose 4-10 µM
HeLa [9] = assay: Inhibition of colony formation in human HeLa cells treated at 9 uM for 24 hrs measured by paraformaldehyde based crystal violet staining analysis; type: functional, cell-based
A549 = assay: Cytotoxicity against human A549 cells incubated for 72 hrs by MTT assay; type: functional, cell-based; conditions: A549, 72 h
HeLa [10] = assay: Cytotoxicity against human HeLa cells incubated for 72 hrs by MTT assay; type: functional, cell-based
HeLa [11] = assay: Upregulation of p53 expression in human HeLa cells measured at 4 to 10 uM for 24 hrs by Western blotting analysis; type: functional, cell-based; conditions: dose 4-10 µM
[12] = Toxicity in immunocompetent C57BL/6J mouse allografted with B16-F10 cells assessed as change of organ index in spleen administered at 30 mg/kg, ip daily for 14 days by hematoxylin and eosin staining analysis; type: organism-based; conditions: in vivo, 336 h, time 14 day
HeLa [13] = assay: Induction of apoptosis in human HeLa cells assessed as necrotic cells preincubated with PFTalpha followed by compound addition at 10 uM for 24 hrs measured by annexin V-PI staining based FITC analysis (reference value: 0.79%); type: functional
HeLa [14] = assay: Inhibition of colony migration in human HeLa cells treated for 24 hrs measured by paraformaldehyde based crystal violet staining analysis; type: functional, cell-based; conditions: dose 0.625-10 µM
HeLa [15] = assay: Induction of apoptosis in human HeLa cells assessed as apoptotic cells incubated at 10 uM for 24 hrs measured by annexin V-PI staining based FITC analysis (Rvb ~ 5%); type: functional
[16] = Toxicity in immunocompetent C57BL/6J mouse allografted with B16-F10 cells assessed as tissue damage in heart administered at 30 mg/kg, ip daily for 14 days by hematoxylin and eosin staining analysis; type: organism-based; conditions: in vivo, 336 h, time 14 day
HeLa [17] = assay: Effect on lipid peroxidation in human HeLa cells measured at 10 to 12 uM for 4 hrs by C11-BODIPY581/591 staining based flow cytometric analysis relative to control; type: functional; conditions: dose 10-12 µM
MDA-MB-231 = assay: Cytotoxicity against human MDA-MB-231 cells incubated for 72 hrs by MTT assay; type: functional, cell-based; conditions: MDA-MB-231, 72 h
HepG2 = assay: Cytotoxicity against human HepG2 cells incubated for 72 hrs by MTT assay; type: functional, cell-based; conditions: HepG2, 72 h
HeLa [18] = assay: Induction of apoptosis in human HeLa cells assessed as viable cells incubated at 4 uM for 24 hrs measured by annexin V-PI staining based FITC analysis (reference value: 93.9%); type: functional; conditions: read-out: Activity
HeLa [19] = assay: Induction of apoptosis in human HeLa cells assessed as viable cells incubated at 10 uM for 24 hrs measured by annexin V-PI staining based FITC analysis (reference value: 93.9%); type: functional; conditions: read-out: Activity
HeLa [20] = assay: Induction of apoptosis in human HeLa cells assessed as viable cells incubated at 8 uM for 24 hrs measured by annexin V-PI staining based FITC analysis (reference value: 93.9%); type: functional; conditions: read-out: Activity
SMMC-7721 = assay: Cytotoxicity against human SMMC-7721 cells incubated for 72 hrs by MTT assay; type: functional, cell-based; conditions: SMMC-7721, 72 h
HeLa [21] = assay: Induction of apoptosis in human HeLa cells assessed as increase in cleaved PARP expression level at 10 uM by immunoblotting analysis; type: functional, cell-based
SK-OV-3 = assay: Cytotoxicity against human SK-OV-3 cells incubated for 72 hrs by MTT assay; type: functional, cell-based; conditions: SK-OV-3, 72 h
HeLa [22] = assay: Cytotoxicity against human HeLa cells assessed as increase in cell viability pretreated with DFO for 4 hrs followed by compound addition at 10 uM for 24 hrs; type: functional, cell-based
SH-SY5Y = assay: Cytotoxicity against human SH-SY5Y cells incubated for 72 hrs by MTT assay; type: functional, cell-based
[23] = Toxicity in immunocompetent C57BL/6J mouse allografted with B16-F10 cells assessed as tissue damage in thymus administered at 30 mg/kg, ip daily for 14 days by hematoxylin and eosin staining analysis; type: organism-based; conditions: in vivo, 336 h, time 14 day
HeLa [24] = assay: Induction of apoptosis in human HeLa cells assessed as necrotic cells incubated at 10 uM for 24 hrs measured by annexin V-PI staining based FITC analysis (reference value: 0.70%); type: functional
NCI-H1155 = assay: Cytotoxicity against human NCI-H1155 cells incubated for 72 hrs by MTT assay; type: functional, cell-based; conditions: NCI-H1155, 72 h
NCI-H1355 = assay: Cytotoxicity against human NCI-H1355 cells incubated for 72 hrs by MTT assay; type: functional, cell-based; conditions: NCI-H1355, 72 h
MCF7 = assay: Cytotoxicity against human MCF7 cells incubated for 72 hrs by MTT assay; type: functional, cell-based; conditions: MCF7, 72 h
[25] = Toxicity in immunocompetent C57BL/6J mouse allografted with B16-F10 cells assessed as change of organ index in kidney administered at 30 mg/kg, ip daily for 14 days by hematoxylin and eosin staining analysis; type: organism-based; conditions: in vivo, 336 h, time 14 day
HeLa [26] = assay: Induction of apoptosis in human HeLa cells assessed as viable cells incubated at 6 uM for 24 hrs measured by annexin V-PI staining based FITC analysis (reference value: 93.9%); type: functional; conditions: read-out: Activity
HeLa [27] = assay: Induction of apoptosis in human HeLa cells assessed as necrotic cells incubated at 8 uM for 24 hrs measured by annexin V-PI staining based FITC analysis (reference value: 0.58%); type: functional
HeLa [28] = assay: Induction of apoptosis in human HeLa cells assessed as late apoptotic cells incubated at 10 uM for 24 hrs measured by annexin V-PI staining based FITC analysis (reference value: 1.54%); type: functional
HeLa [29] = assay: Induction of apoptosis in human HeLa cells assessed as viable cells preincubated with PFTalpha followed by compound addition at 10 uM for 24 hrs measured by annexin V-PI staining based FITC analysis (reference value: 91.6%); type: functional; conditions: read-out: Activity

SMILES	inhibition (HeLa [2])	Activity (HeLa [3])	inhibition (HeLa [4])	pIC50 (L02)	Activity (HeLa [5])	Activity (HeLa [6])	Activity (HeLa [8])	inhibition (HeLa [9])	pIC50 (A549)	pIC50 (HeLa [10])	Activity (HeLa [11])	inhibition (HeLa [14])	Activity (HeLa [15])	Activity (HeLa [17])	pIC50 (MDA-MB-231)	pIC50 (HepG2)	viability at 4 µM (HeLa [18])	viability at 10 µM (HeLa [19])	viability at 8 µM (HeLa [20])	pIC50 (SMMC-7721)	also measured
CCC/C=C/C=C/C(=O)O[C@@H]1C[C@H]2[C@@H](CCCC[C@H](O)CCC)CCC[C@H]2N[C@H]1C	inactive	Active	Dose-Dependent Effect	4.90	Not toxic	5%	Dose-Dependent Effect	Active	5.33	5.60	Active	Dose-Dependent Effect	~70%	10%	5.07	5.21	91.8%	26.1%	76.1%	5.39	Activity [1]: Non-Toxic; viability at 10 µM (HeLa [7]): 46%; Activity [12]: Non-Toxic; Activity (HeLa [13]): 3.94%; Activity [16]: Non-Toxic; Activity (HeLa [21]): Active; pIC50 (SK-OV-3): 5.10; Activity (HeLa [22]): Not toxic; pIC50 (SH-SY5Y): 5.24; Activity [23]: Non-Toxic; Activity (HeLa [24]): 2.13%; pIC50 (NCI-H1155): 5.15; pIC50 (NCI-H1355): 5.03; pIC50 (MCF7): 5.30; Activity [25]: Non-Toxic; viability at 6 µM (HeLa [26]): 88.4%
CCCCC/C=C/C(=O)O[C@@H]1C[C@H]2[C@@H](CCCC[C@H](O)CCC)CCC[C@H]2N[C@H]1C	inactive	Active	Dose-Dependent Effect	4.73	Not toxic	5%	Dose-Dependent Effect	Active	5.23	5.57	Active	Dose-Dependent Effect	~50%	10%	5.09	5.21	91.4%	45.3%	52.2%	5.41	Activity (HeLa [27]): 3.09%; Activity (HeLa [21]): Active; pIC50 (SK-OV-3): 5.10; Activity (HeLa [28]): 27.3%; Activity (HeLa [22]): Not toxic; pIC50 (SH-SY5Y): 5.21; viability at 10 µM (HeLa [29]): 36.4%; pIC50 (NCI-H1155): 5.10; pIC50 (NCI-H1355): 5.06; pIC50 (MCF7): 5.23; viability at 6 µM (HeLa [26]): 65%
